This note sets out measurements from US11266643B2, “Triaryl compounds for treatment of PD-L1 diseases” (CHEMOCENTRYX, INC., priority 2019, dated 2022).

One may read the IC50 as the concentration needed to halve the response being measured. A high value points to weaker potency in that assay.

Chain of human PD-L1 (Q9NZQ7 19-239): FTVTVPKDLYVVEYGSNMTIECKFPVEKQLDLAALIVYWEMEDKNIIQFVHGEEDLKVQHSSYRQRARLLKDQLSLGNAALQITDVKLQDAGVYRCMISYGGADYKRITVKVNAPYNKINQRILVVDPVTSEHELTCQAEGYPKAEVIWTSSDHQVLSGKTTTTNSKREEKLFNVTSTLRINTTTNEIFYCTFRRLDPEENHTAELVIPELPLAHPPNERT

One test has as its target human PD-L1 (Homo sapiens (Human), UniProt Q9NZQ7). Description: Enzyme-Linked Immunosorbent Assay (ELISA), PD-1/PD-L1 binding. Conditions: PD-1/PD-L1 ELISA, human PD-L1 coated plates, Table 1. The procedure:
96 Well plates were coated with […] of human PD-L1 (obtained from R&D) in PBS overnight at 4° C. The wells were then blocked with 2% BSA in PBS (W/V) with 0.05% TWEEN-20 for 1 hour at 37° C. The plates were washed 3 times with PBS/0.05% TWEEN-20 and the compounds were serial diluted (1:5) in dilution medium and added to the ELISA plates. Human PD-1 […] 0.31 μg/mL (ACRO Biosystems) were added and incubated for 1 hour at 37° C. then washed 3 times with PBS/0.05% TWEEN-20. A second block was performed with 2% BSA in PBS (W/V)/0.05% TWEEN-20 for 10 min at 37° C. and the plates were washed 3 times with PBS/0.05% TWEEN-20. Streptavidin-HRP was added for 1 hour at 37° C. then the plates were washed 3 times with PBS/0.05% TWEEN-20. TMB substrate was added and reacted for 20 min at 37° C. A stop solution (2 N aqueous H2SO4) was added. The absorbance was read at 450 nm using a micro-plate spectrophotometer.
Using the methods described in the Examples above, the compounds in Table 2 were prepared & tested for biological activity using the ELISA method described above.
In general terms: ELISA stands for enzyme-linked immunosorbent assay.
`COC(=O)Cc1ccc(C(=O)Nc2cccc(-c3cccc(-c4cc(F)c(CN)c(OC)c4)c3C)c2C)nc1` [Example 1.331] had a concentration for half-maximal inhibition (IC50) of less than 10 nM. `COc1cc(-c2cccc(-c3cccc(NC(=O)c4ccccn4)c3C)c2F)cc(F)c1CN1CC(C(=O)O)C1` [Example 1.348]: the IC50 is 10 to 1000 nM. `COc1cc(-c2cccc(-c3cccc(NC(=O)c4cccn(C)c4=O)c3C)c2C)cc(F)c1CNCC(=O)O` [Example 1.290] yielded an IC50 of less than 10 nM. The molecule `COc1cc(-c2cccc(-c3cccc(NC(=O)c4c[nH]c(=O)n(C)c4=O)c3C)c2C)cc(F)c1CN[C@@H](C)CO` [Example 1.226] displayed an IC50 of less than 10 nM. As to `COc1cc(-c2cccc(-c3cccc(NC(=O)c4cnc(CO)cn4)c3C)c2C)cc(F)c1CN1CC(C(=O)O)C1` [Example 1.326], the IC50 is less than 10 nM.

The same test, now with this note: human PD-1/PD-L1 ELISA, plates coated with human PD-L1.
As to `COc1cc(-c2cccc(-c3cccc(NC(=O)c4cccn(C)c4=O)c3C)c2C)cc(F)c1CN[C@H]1CNC(=O)C1` [Example 1.142], the IC50 was less than 10 nM. Same read-out and setting: next, `COc1cc(-c2cccc(-c3cccc(NC(=O)c4cccn(C)c4=O)c3C)c2C)cc(F)c1CNC(C)(C)CO` [Example 1.150]: less than 10 nM; `COc1cc(-c2cccc(-c3cccc(NC(=O)c4nn(C)c(=O)n(C)c4=O)c3C)c2C)cc(F)c1CNCC(C)(C)C(N)=O` [Example 1.063]: less than 10 nM; `COc1cc(-c2cccc(-c3cccc(Nc4cncc5nccnc45)c3C)c2C)cc(F)c1CN[C@@H]1CCOC[C@@H]1O` [Example 1.041]: less than 10 nM.

Molecule `COc1cc(-c2cccc(-c3cccc(NC(=O)c4nn(C)c(=O)n(C)c4=O)c3C)c2C)cc(F)c1CN[C@@H]1CCOC[C@@H]1O` [Example 1.076] had a half-inhibitory concentration (IC50) of less than 10 nM.

`COc1cc(-c2cccc(-c3cccc(NC(=O)c4cn(C)c(=O)n(C)c4=O)c3C)c2C)cc(F)c1CNC1COC1` [Example 1.177]: the IC50 is less than 10 nM. Still for that read-out and setting: next, `COc1cc(-c2cccc(-c3cccc(Nc4nccc5nccnc45)c3C)c2C)cc(F)c1CN[C@H]1CCNC1=O` [Example 1.125]: 10 to 1000 nM; `COc1cc(-c2cccc(-c3cccc(NC(=O)c4cn(C)c(=O)n(C)c4=O)c3C)c2C)cc(F)c1CN[C@@H]1COC[C@H]1O` [Example 1.057]: less than 10 nM. Turning to `COc1cc(-c2cccc(-c3cccc(NC(=O)c4c[nH]c(=O)n(C)c4=O)c3C)c2C)cc(F)c1CNCC(C)(C)C(N)=O` [Example 1.085], the IC50 is less than 10 nM.

Staying with this test, now noted: plate-coated human PD-L1, biotinylated Human PD-1, absorbance at 450 nm.
Regarding `COc1cc(-c2cccc(-c3cccc(NC(=O)c4cn(C)c(=O)n(C)c4=O)c3C)c2Cl)cc(F)c1CN1CC(C(=O)O)C1` [Example 2.046], the IC50 is less than 10 nM. Turning to `COc1cc(-c2cccc(-c3cccc(NC(=O)c4cn(C)c(=O)n(C)c4=O)c3Cl)c2Cl)cc(F)c1CN1CC(C)(C(=O)O)C1` [Example 2.008], the IC50 is less than 10 nM. On the same count and under the same terms, the result for `COc1cc(-c2cccc(-c3cccc(NC(=O)c4c[nH]c(=O)n(C)c4=O)c3C)c2Cl)cc(F)c1CN[C@@H]1CNC(=O)C1` [Example 2.033] reads less than 10 nM; that for `COc1cc(-c2cccc(-c3cccc(Nc4nccc5nccnc45)c3C)c2Cl)cc(F)c1CNCC1(O)CC1` [Example 2.111], less than 10 nM. `COc1cc(-c2cccc(-c3cccc(NC(=O)c4cn(C)c(=O)n(C)c4=O)c3Cl)c2Cl)cc(F)c1CN[C@@H]1CCOC1` [Example 2.065] returned a 50% inhibitory concentration (IC50) of less than 10 nM. The molecule `COc1cc(-c2cccc(-c3cccc(NC(=O)c4cn(C)c(=O)n(C)c4=O)c3C)c2Cl)cc(F)c1CN[C@@H]1COC[C@@H]1O` [Example 2.094] displayed an IC50 of less than 10 nM.

In turn, `COc1cc(-c2cccc(-c3cccc(NC(=O)c4cn(C)c(=O)n(C)c4=O)c3Cl)c2Cl)cc(F)c1CN[C@@H]1COCC[C@H]1O` [Example 2.070] showed an IC50 of less than 10 nM. For `COc1cc(-c2cccc(-c3cccc(NC(=O)c4cn(C)c(=O)n(C)c4=O)c3Cl)c2Cl)cc(F)c1CN(C)[C@@H]1CNC(=O)C1` [Example 2.068], the IC50 is less than 10 nM. In the case of `COc1cc(-c2cccc(-c3cccc(NC(=O)c4cn(C)c(=O)n(C)c4=O)c3C)c2Cl)cc(F)c1CNCC1(C(N)=O)CC1` [Example 2.059], the IC50 was less than 10 nM.
